Reference: US20040110732A1, “Pharmaceutical composition for transdermal or transmucosal administration comprising at least one progestin and/or at least one oestrogen, process for preparing it and uses thereof” (BESINS INTERNATIONAL BELGIQUE, priority 2002, published 2004)

Test: In vitro percutaneous absorption of 3H estradiol in Franz-type diffusion cells
Protocol: The in vitro percutaneous absorption was studied quantitatively on biopsies of dermatomed human ventral skin, placed in a 1.77 cm^2 Franz static diffusion cell, which allows the dermis to be placed in contact with a survival liquid into which the substance absorbed through the skin will be dosed. The survival liquid consists of a solution of 9 g/L sodium chloride supplemented with 15 g/L of serum albumin. The cells are placed under ambient atmosphere and thermostatically maintained at 37° C. 10 μl of preparation are applied to the entire surface of the epidermis circumscribed by the glass cylinder. During the experiment, samples of the survival liquid are taken at times 2 h, 4 h, 6 h, 8 h and 24 h. For each time, the survival liquid taken is replaced with fresh liquid.

With `C[C@]12CC[C@@H]3c4ccc(O)cc4CC[C@H]3[C@@H]1CC[C@@H]2O` [estradiol, 17β-estradiol] the “cumulative absorption at 24 hours of estradiol” value (control of the ethylglycolic acid test: aqueous-alcoholic estradiol 0.06% solution without hydroxy acid) was 5.26%±1.26%, the “percutaneous absorption of estradiol” value (control of the glycolic acid test: aqueous-alcoholic estradiol 0.06% solution without hydroxy acid) was 6.96%±2.95% and the “percutaneous absorption of estradiol at 24 hours” value (control of the lactic acid test: aqueous-alcoholic solution of estradiol 0.06%, 50% absolute alcohol, no hydroxy acid) was 5.50%±1.76%. For the same compound, the “cumulative absorption at 24 hours of estradiol” value (ethylglycolic acid at 5%, estradiol 0.06%) was 8.90%±1.29%, the “percutaneous absorption of estradiol” value (glycolic acid at 5% in aqueous-alcoholic solution containing 40% absolute ethanol, estradiol 0.06%) was 17.73%±2.96% and the “flows between 8 and 24 hours” value (lactic acid at 5% in 50% ethanol solution, compared with the control) was “significantly increasing”. For the same compound, the “percutaneous absorption of estradiol at 24 hours” value (lactic acid at 5% in aqueous-alcoholic solution containing 50% ethanol, estradiol 0.06%) was 13.80%±6.78%.
